{"source": "patent US20030199431A1", "about": "“Modified peptide nucleic acid (PNA) molecules” (priority 1999, published 2003)", "key": {"[1]": {"system": "Staphylococcus aureus NCTC 8325", "set-up": "MIC: unit not given beside the values", "conditions": "S. aureus strain 8325"}, "S. aureus strain 700698 [2]": {"system": "S. aureus strain 700698", "set-up": "MIC: unit not given beside the values", "conditions": "S. aureus strain ATCC 700698"}, "S. aureus strain 700698R [3]": {"system": "S. aureus strain 700698R", "conditions": "S. aureus strain ATCC 700698R; additional 24 hours at 35° C."}, "[4]": {"system": "Enterococcus faecium strain 8803", "conditions": "E. facium strain 8803"}, "[5]": {"system": "Enterococcus faecium ATCC 51550", "conditions": "E. facium strain ATCC 51550"}, "[6]": {"system": "Enterococcus faecium ATCC 700221", "conditions": "E. facium strain ATCC 700221"}, "[7]": {"system": "Escherichia coli K12 MG1655", "assay_type": "cell-based", "conditions": "cultures with 10^4-10^1 cells/ml; 37° C., 16 hours", "description": "(§1) The bacterial growth assay is designed to identify modified PNA molecules that inhibit or completely abolish bacterial growth. Growth inhibition results from antisense binding of PNA to mRNA of the targeted gene. The compound tested is present during the entire assay.\n(§2) The experimental bacterial strain used is Escherichia coli K12 MG1655 (E. coli Genentic Stock Center, Yale University, New Haven). The medium for growth is 10% sterile LB (Lurea Bertani) medium. E. coli test cells are pre-cultured in LB medium at 37° C. over night (over night culture). The screen is performed in 96-well microtiter plates at 37° C. with constant shaking. PNAs are dissolved in H2O as a 40×concentrated stock solution.\n(§3) A fresh culture (test culture) is inoculated with an overnight culture and grown to mid-log-phase (OD600=0.1 corresponding to 10^7 cells/ml) at 37° C. The test culture is diluted stepwise in the range 10^5 to 10^1 with 10% LB medium. 195 μl of diluted culture and 5 μl of a 40×concentrated PNA stock solution are added to each test well. 96-well microtiter plates are incubated in a microplate scanning spectrophotometer at 37° C. under constant shaking. OD600 measurements are performed automatically every 3.19 minutes and recorded simultaneously.\nThe assay was performed as follows."}, "E. coli K12": {"system": "E. coli K12", "assay_type": "cell-based, Escherichia coli"}, "[8]": {"system": "Escherichia coli K12 MG1655", "assay_type": "cell-based", "conditions": "cultures with 10^4-10^1 cells/ml; 37° C., 16 hours", "description": "as §1, §2, §3\nThe assay was performed as follows. […] PNA design no. 2", "remark": "listed apart in the source"}, "[9]": {"system": "Staphylococcus aureus NCTC 8325", "conditions": "S. aureus strain 8325; characteristics of the strain; cited from earlier work"}, "S. aureus strain 700698 [10]": {"system": "S. aureus strain 700698", "conditions": "S. aureus strain ATCC 700698; characteristics of the strain; cited from earlier work"}, "S. aureus strain 700698R [11]": {"system": "S. aureus strain 700698R", "conditions": "S. aureus strain ATCC 700698R; characteristics of the strain; cited from earlier work"}}, "note": "Read-outs that look alike come from different tables or passages of the source.", "data": [{"compound": "Cc1cn(CC(=O)N(CCNC(=O)CN(CCNC(=O)CN(CCNC(=O)CN(CCNC(=O)CN(CCNC(=O)CN(CCNC(=O)CN(CCNC(=O)COCCOCCNC(=O)C2CCC(CN3C(=O)CC(SC[C@H](NC(=O)[C@H](CCCCN)NC(=O)[C@H](CCCCN)NC(=O)[C@@H](NC(=O)[C@@H](NC(=O)[C@H](Cc4ccccc4)NC(=O)[C@H](CCCCN)NC(=O)[C@@H](NC(=O)[C@H](CCCCN)NC(=O)[C@H](Cc4ccccc4)NC(=O)[C@H](CCCCN)NC(=O)[C@@H](N)CCCCN)C(C)C)C(C)C)C(C)C)C(=O)O)C3=O)CC2)C(=O)Cn2cnc3c(N)ncnc32)C(=O)Cn2ccc(N)nc2=O)C(=O)Cn2cc(C)c(=O)[nH]c2=O)C(=O)Cn2cc(C)c(=O)[nH]c2=O)C(=O)Cn2cc(C)c(=O)[nH]c2=O)C(=O)Cn2cnc3c(=O)[nH]c(N)nc32)CC(=O)NCCN(CC(=O)NCCN(CC(=O)NCCN(CC(=O)NCCN(CC(=O)NCCN(CC(N)=O)C(=O)Cn2ccc(N)nc2=O)C(=O)Cn2ccc(N)nc2=O)C(=O)Cn2ccc(N)nc2=O)C(=O)Cn2cnc3c(=O)[nH]c(N)nc32)C(=O)Cn2ccc(N)nc2=O)c(=O)[nH]c1=O", "note": "(some centres unmarked) [Example 24, H2N-KKFKVKFVVKKC-smcc-Ado-ACTTTGTCGCCC-NH2]", "values": [{"measurement": "MIC", "setting": "[1]", "result": "800/1600"}, {"measurement": "MBC", "setting": "[1]; additional 24 hours at 35° C.", "result": 1.6, "unit": "µM"}, {"measurement": "MIC", "setting": "S. aureus strain 700698 [2]", "result": "800/1600"}, {"measurement": "MBC", "setting": "S. aureus strain 700698 [2]; additional 24 hours at 35° C.", "result": 1.6, "unit": "µM"}, {"measurement": "MBC", "setting": "S. aureus strain 700698R [3]", "result": "≧1600 nM"}]}, {"compound": "CC[C@H](C)[C@H](NC(=O)[C@H](CCCCN)NC(=O)[C@H](CCCCN)NC(=O)[C@H](CC(C)C)NC(=O)[C@@H](NC(=O)[C@@H](NC(=O)[C@H](C)NC(=O)[C@@H](NC(=O)[C@H](CCCCN)NC(=O)[C@H](CCCCN)NC(=O)[C@@H](NC(=O)[C@H](CC(C)C)NC(=O)[C@@H](NC(=O)[C@@H](NC(=O)CNC(=O)[C@H](CC(C)C)NC(=O)[C@@H]1CCCN1C(=O)[C@H](C)NC(=O)[C@H](CC(C)C)NC(=O)[C@@H](NC(=O)[C@@H](N)CO)[C@@H](C)CC)[C@@H](C)O)[C@@H](C)O)C(C)C)C(C)C)[C@@H](C)O)[C@@H](C)O)C(=O)N[C@@H](Cc1ccccc1)C(=O)N[C@@H](CO)C(=O)N[C@@H](CCCCN)C(=O)N[C@@H](Cc1c[nH]c2ccccc12)C(=O)N[C@@H](CCCCN)C(=O)N[C@@H](CSC1CC(=O)N(CC2CCC(C(=O)NCCOCCOCC(=O)NCCN(CC(=O)NCCN(CC(=O)NCCN(CC(=O)NCCN(CC(=O)NCCN(CC(=O)NCCN(CC(=O)NCCN(CC(=O)NCCN(CC(=O)NCCN(CC(=O)NCCN(CC(=O)NCCN(CC(=O)NCCN(CC(N)=O)C(=O)Cn3cnc4c(N)ncnc43)C(=O)Cn3cc(C)c(=O)[nH]c3=O)C(=O)Cn3cc(C)c(=O)[nH]c3=O)C(=O)Cn3cc(C)c(=O)[nH]c3=O)C(=O)Cn3cnc4c(N)ncnc43)C(=O)Cn3ccc(N)nc3=O)C(=O)Cn3cnc4c(N)ncnc43)C(=O)Cn3cnc4c(N)ncnc43)C(=O)Cn3cc(C)c(=O)[nH]c3=O)C(=O)Cn3ccc(N)nc3=O)C(=O)Cn3cc(C)c(=O)[nH]c3=O)C(=O)Cn3cc(C)c(=O)[nH]c3=O)CC2)C1=O)C(=O)O", "note": "(some centres unmarked) [Example 22]", "values": [{"measurement": "MIC", "setting": "[4]", "result": "<0.4", "unit": "µM"}, {"measurement": "MBC", "setting": "[4]; additional 24 hours at 35° C.", "result": "<0.4", "unit": "µM"}, {"measurement": "MIC", "setting": "[5]", "result": "<0.4", "unit": "µM"}, {"measurement": "MBC", "setting": "[5]; additional 24 hours at 35° C.", "result": "<0.4", "unit": "µM"}, {"measurement": "MIC", "setting": "[6]", "result": "<0.4", "unit": "µM"}, {"measurement": "MBC", "setting": "[6]; additional 24 hours at 35° C.", "result": "<0.4", "unit": "µM"}]}, {"compound": "H-KFFKFFKFFK-ado-TTTCATCCGCTG-Lys-NH2 [PNA 14]", "values": [{"measurement": "PNA concentration giving total inhibition of growth", "setting": "[7]", "result": "at least 1.4 μM"}]}, {"compound": "H-KFFKFFKFF-ado-JTJTJJT-ado-ado-ado-TCCCTCTC-Lys-NH2 [Example 5]", "values": [{"measurement": "Bacterial growth inhibition", "setting": "E. coli K12", "result": "− (key: +: Total inhibition of bacterial growth.; (+): Significantly extended lagphase, (more than five times); −: Lagphase extended less than five times;)"}]}, {"compound": "H-KFFKFFKFFK-ado-CACTGGAAATTT-Lys-NH2 [PNA 26]", "values": [{"measurement": "PNA concentration giving total inhibition of growth", "setting": "[8]", "result": "at least 2.5 μM"}]}, {"compound": "CN[C@H](CC(C)C)C(=O)N[C@H]1C(=O)N[C@@H](CC(N)=O)C(=O)N[C@H]2C(=O)N[C@H]3C(=O)N[C@H](C(=O)N[C@H](C(=O)O)c4cc(O)cc(O)c4-c4cc3ccc4O)[C@H](O)c3ccc(c(Cl)c3)Oc3cc2cc(c3O[C@@H]2O[C@H](CO)[C@@H](O)[C@H](O)[C@H]2O[C@H]2C[C@](C)(N)[C@H](O)[C@H](C)O2)Oc2ccc(cc2Cl)[C@H]1O", "note": "[Vancomycin]", "values": [{"measurement": "Vancomycin MIC", "setting": "[9]", "result": "<0.5", "unit": "µg/mL"}, {"measurement": "Vancomycin MIC", "setting": "S. aureus strain 700698 [10]", "result": 2, "unit": "µg/mL"}, {"measurement": "Vancomycin MIC", "setting": "S. aureus strain 700698R [11]", "result": 11, "unit": "µg/mL"}]}]}
